≈ marks a conversion by molar mass, not a printed value.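 Dose response: 5 concentrations. Exposure: 48 h. Format: 96-well plates. Endpoint: linear interpolation; highest concentration if not reached. GI50 is the concentration that inhibits growth by half. At the TGI there is no net growth.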
Key:
Assay in all cases: DTP human tumour cell line panel, 48 h
HOP-92 NSCLC = tested on: HOP-92 NSCLC
LOX IMVI melanoma = tested on: LOX IMVI melanoma
MALME-3M melanoma = tested on: MALME-3M melanoma
MDA-MB-231 breast = tested on: MDA-MB-231 breast
MDA-MB-435 = tested on: MDA-MB-435
OVCAR-3 ovarian = tested on: OVCAR-3 ovarian
SNB-19 CNS = tested on: SNB-19 CNS
SNB-75 CNS = tested on: SNB-75 CNS
SW-620 colon = tested on: SW-620 colon
BT-549 breast = tested on: BT-549 breast

Structure (SMILES) | TGI (HOP-92 NSCLC) | TGI (LOX IMVI melanoma) [µM] | TGI (MALME-3M melanoma) [µM] | TGI (MDA-MB-231 breast) [µM] | TGI (MDA-MB-435) [µM] | TGI (OVCAR-3 ovarian) | TGI (SNB-19 CNS) [µM] | TGI (SNB-75 CNS) [µM] | TGI (SW-620 colon) | TGI (BT-549 breast) [µM] | GI50 (HOP-92 NSCLC) [µg/mL] | GI50 (OVCAR-3 ovarian) [µg/mL] | GI50 (SNB-75 CNS) [µM] | GI50 (SW-620 colon) [µg/mL]
Cc1ccc2c(c1)CC1(Cc3cc(C)ccc3C1=O)C2=O | > 100 µM | > 100 | > 100 | > 100 | > 100 | > 100 µM | > 100 | > 100 | > 100 µM |  |  |  |  | 
CCn1c(=O)c2nc(SC)sc2n(-c2ccccc2)c1=S | > 100 µM | > 100 | > 100 | > 100 | > 100 | > 100 µM | > 100 | > 100 | > 100 µM |  |  |  |  | 
COc1cc2c(cc1C)NC(=O)/C2=C/c1c(Cl)[nH]c2ccccc12 | 25 µM | 17.9 | 15.3 | 16.9 | 4.13 | 6.34 µM | 19.2 | 21.7 | 19.6 µM | 9.35 |  |  |  | 
CC(NC(CC12CC3CC(CC(C3)C1)C2)C(N)=O)c1ccccc1 (stereo unspecified) |  | 30.7 | 34.3 | > 100 | 41.1 | 26.6 µM | > 100 |  | > 100 µM |  |  |  |  | 
COC(=O)c1sc2c(c1C(=O)OC)C(=Nc1ccc(OC)cc1)SC2=Nc1ccc(OC)cc1 | 2.91 µM | 0.449 | 3.65 | 2.35 | 1.94 | 1.32 µM | 2.88 | 1.24 | 0.7 µM | 3.43 |  |  |  | 
C=CCCCCCCCCCOC1C=CC(O)C(CO)O1 (stereo unspecified) | > 100 µM | > 100 | 73.3 | > 100 | > 100 | > 100 µM | > 100 | > 100 | > 100 µM | > 100 |  |  |  | 
Cc1n[nH]c(=O)c2c3c([nH]c12)-c1ccccc1C3 | > 100 µM | > 100 | > 100 | > 100 | > 100 | > 100 µM | > 100 | 66.6 | > 100 µM | > 100 |  |  |  | 
CCc1nnc2sc(-c3ccc(-c4ccccc4[N+](=O)[O-])o3)nn12 | > 100 µM | > 100 | > 100 | > 100 | 49.8 | > 100 µM | > 100 | > 100 | > 100 µM | > 100 |  |  |  | 
COc1ccc(Cl)cc1NC(=O)O/N=C(\Cl)C(C)C | 3.9 µM | 5.06 | 5.28 | 15.1 | 47.6 | 18.7 µM | > 61.7 | 38.7 |  | 6.9 |  |  |  | 
N#CC1=C(N)OC2=C(CCCc3ccc([N+](=O)[O-])cc32)C1c1ccc(Cl)cc1 (stereo unspecified) | > 100 µM | 44.5 | 31.4 | > 100 | 65.5 | 29.4 µM | > 100 | > 100 | > 100 µM | 75.3 |  |  |  | 
N#CCCN(C(=O)Nc1ccc(NC(=O)N(CCC#N)c2ccccc2)cc1)c1ccccc1 |  | > 100 | > 100 | > 100 | > 100 | > 100 µM | > 100 | > 100 | > 100 µM | > 100 |  |  |  | 
CC(=O)OC1CCC2(C)C(CCC3C2CCC2(C)C(c4ccc(=O)oc4)C(OC(C)=O)CC32O)C1 (stereo unspecified) | 0.0721 µM | 0.38 | 0.017 |  |  | 0.0235 µM | 0.33 | 0.0801 | 0.0593 µM |  |  |  |  | 
O=c1[nH]nc(-c2cccc([N+](=O)[O-])c2)[nH]1 |  | > 100 | > 100 |  | > 100 | > 100 µM | > 100 | > 100 | > 100 µM | > 100 |  |  |  | 
CCC(C)C(NC(=O)c1cccc2c(=O)c3ccccc3[nH]c12)C(=O)O (stereo unspecified) | > 100 µM | > 100 | > 100 | > 100 | > 100 | > 100 µM | > 100 | > 100 | > 100 µM |  |  |  |  | 
CC/C(CC(=O)CCC(=O)Nc1ccc(C)c(C)c1)=N\NC(=O)c1cc2ccccc2cc1O | 91.3 µM | 81.1 | 92.6 |  |  | > 100 µM | > 100 |  | > 100 µM |  |  |  |  | 
CC(C)C(Sc1nc(N)nc2nc[nH]c12)C(=O)O (stereo unspecified) |  | > 100 | > 100 | > 100 | > 100 | > 100 µM | > 100 | > 100 | > 100 µM | > 100 |  |  |  | 
Cc1c2ccncc2c(C)c2c1[nH]c1ccc(O)cc12 | 0.579 µg/mL |  |  |  |  | 0.435 µg/mL |  |  | 3.94 µg/mL |  | 0.0448 (≈ 0.171 µM) | 0.0909 (≈ 0.347 µM) | 22600 | 0.0267 (≈ 0.102 µM)
CC(=O)CC(O)(C(F)(F)Cl)C(F)(Cl)Cl (stereo unspecified) | > 10 µM | > 10 | > 10 | > 10 | > 10 | > 10 µM | > 10 | > 10 | > 10 µM |  |  |  |  | 
CC1(C)OCC(/C=C\C(O)CC2(C)OCCO2)CO1 (stereo unspecified) | > 100 µM | > 100 |  | > 100 | > 100 | > 100 µM | > 100 | > 100 | > 100 µM | > 100 |  |  |  | 
COc1ccc2nc(-c3ccc(N)cc3)sc2c1 | > 100 µM |  | > 100 | > 100 | > 100 | > 100 µM | > 100 | > 100 | > 100 µM | > 100 |  |  |  | 
O=C1c2ccccc2CC12Cc1ccc3c(c1C2=O)CCCC3 (stereo unspecified) |  | > 100 | > 100 | 86 | > 100 | > 100 µM | > 100 | 70.5 | > 100 µM | > 100 |  |  |  | 
CN1N=C(c2ccncc2)OC1c1ccc(C(F)(F)F)cc1 (stereo unspecified) |  | > 100 |  | > 100 | > 100 | > 100 µM | > 100 | 87.8 | > 100 µM |  |  |  |  | 
c1cc(CSP234N5CCN2CCN3CCN4CC5)cc(CSP234N5CCN2CCN3CCN4CC5)c1 | 64.5 µM | 35.1 |  | 38.2 | 59.3 | > 100 µM | > 100 | 76.4 | > 100 µM | 51.6 |  |  |  | 
